In patent publication US20260285850A1, “SUBSTITUTED OXAZOLIDINONES AND IMIDAZOLINONES AS HERBICIDES” (FMC CORPORATION, priority 2023, published 2026):

Experiments:
Format in all cases: in vivo
corn (Zea mays) [1] = assay: Test A postemergence application, visual injury rating 0-100; settings: Postemergence
Description: (§1) Seeds of plant species selected from barnyardgrass (Echinochloa crus-galli), blackgrass (Alopecurus myosuroides), corn (Zea mays), foxtail, giant (giant foxtail, Setaria faberi), green foxtail (Setaria viridis), goosegrass (Eleusine indica), kochia (Bassia scoparia), oat, wild (wild oat, Avena fatua), palmer (palmer amaranth, palmer pigweed, Amaranthus palmeri), ragweed (common ragweed, Ambrosia artemisiifolia), ryegrass, Italian (italian ryegrass, Lolium multiflorum), soybean (Glycine max) and wheat (Triticum aestivum) were planted into a blend of loam soil and sand and treated preemergence with a directed soil spray using test chemicals formulated in a non-phytotoxic solvent mixture which included a surfactant.
(§2) At the same time, plants selected from these crops and weed species and also galium (catchweed bedstraw, Galium aparine) and horseweed (Erigeron canadensis) were planted in pots containing the same blend of loam soil and sand and treated with postemergence applications of test chemicals formulated in the same manner. Plants ranged in height from 2 to 10 cm and were in the one- to two-leaf stage for the postemergence treatment. Treated plants and untreated controls were maintained in a greenhouse for 10 days, after which time all treated plants were compared to untreated controls and visually evaluated for injury. Plant response ratings, summarized in Table A, are based on a 0 to 100 scale where 0 is no effect and 100 is complete control. A dash (-) response means no test result.

soybean (Glycine max) [2] = assay: as above; settings: Postemergence
Description: as §1, §2

[3] = test system: ryegrass, Italian (italian ryegrass, Lolium multiflorum); assay: as above; settings: Postemergence
Description: as §1, §2

[4] = test system: horseweed (Erigeron canadensis); assay: as above; settings: Postemergence
Description: as §1, §2

[5] = test system: ragweed (common ragweed, Ambrosia artemisiifolia); assay: as above; settings: Postemergence
Description: as §1, §2

[6] = test system: galium (catchweed bedstraw, Galium aparine); assay: as above; settings: Postemergence
Description: as §1, §2

[7] = test system: barnyardgrass (Echinochloa crus-galli); assay: as above; settings: Postemergence
Description: as §1, §2

[8] = test system: blackgrass (Alopecurus myosuroides); assay: as above; settings: Postemergence
Description: as §1, §2

[9] = test system: palmer (palmer amaranth, palmer pigweed, Amaranthus palmeri); assay: as above; settings: Postemergence
Description: as §1, §2

[10] = test system: oat, wild (wild oat, Avena fatua); assay: as above; settings: Postemergence
Description: as §1, §2

[11] = test system: wheat (Triticum aestivum); assay: as above; settings: Postemergence
Description: as §1, §2

kochia (Bassia scoparia) [12] = assay: as above; settings: Postemergence
Description: as §1, §2

corn (Zea mays) [13] = assay: Test A preemergence soil spray, visual injury rating 0-100; settings: 10 days; for Corn plant response rating: 31 g ai/ha, 0 to 100 scale; for Corn plant response rating (0 to 100 scale): 125 g ai/ha, 0 = no effect, 100 = complete control
Description: as §1, §2

soybean (Glycine max) [14] = assay: as above; settings: 10 days; for Soybean plant response rating: 31 g ai/ha, 0 to 100 scale; for Soybean plant response rating (0 to 100 scale): 125 g ai/ha, 0 = no effect, 100 = complete control
Description: as §1, §2

[15] = test system: ryegrass, Italian (italian ryegrass, Lolium multiflorum); assay: as above; settings: 10 days; for Ryegrass, Italian plant response rating: 31 g ai/ha, 0 to 100 scale; for Ryegrass, Italian plant response rating (0 to 100 scale): 125 g ai/ha, 0 = no effect, 100 = complete control
Description: as §1, §2

[16] = test system: ragweed (common ragweed, Ambrosia artemisiifolia); assay: as above; settings: 10 days; for Ragweed plant response rating: 31 g ai/ha, 0 to 100 scale; for Ragweed plant response rating (0 to 100 scale): 125 g ai/ha, 0 = no effect, 100 = complete control
Description: as §1, §2

[17] = test system: barnyardgrass (Echinochloa crus-galli); assay: as above; settings: 10 days; for Barnyardgrass plant response rating: 31 g ai/ha, 0 to 100 scale; for Barnyardgrass plant response rating (0 to 100 scale): 125 g ai/ha, 0 = no effect, 100 = complete control
Description: as §1, §2

[18] = test system: blackgrass (Alopecurus myosuroides); assay: as above; settings: 10 days; for Blackgrass plant response rating: 31 g ai/ha, 0 to 100 scale; for Blackgrass plant response rating (0 to 100 scale): 125 g ai/ha, 0 = no effect, 100 = complete control
Description: as §1, §2

[19] = test system: palmer (palmer amaranth, palmer pigweed, Amaranthus palmeri); assay: as above; settings: 10 days; for Amaranth, Palmer (Pigweed, Palmer) plant response rating: 31 g ai/ha, 0 to 100 scale; for Amaranth, Palmer plant response rating (0 to 100 scale): 125 g ai/ha, 0 = no effect, 100 = complete control
Description: as §1, §2

[20] = test system: oat, wild (wild oat, Avena fatua); assay: as above; settings: 10 days; for Oat, Wild plant response rating: 31 g ai/ha, 0 to 100 scale; for Oat, Wild plant response rating (0 to 100 scale): 125 g ai/ha, 0 = no effect, 100 = complete control
Description: as §1, §2

[21] = test system: wheat (Triticum aestivum); assay: as above; settings: 10 days; for Wheat plant response rating: 31 g ai/ha, 0 to 100 scale; for Wheat plant response rating (0 to 100 scale): 125 g ai/ha, 0 = no effect, 100 = complete control
Description: as §1, §2

kochia (Bassia scoparia) [22] = assay: as above; settings: 10 days; for Kochia plant response rating: 31 g ai/ha, 0 to 100 scale; for Kochia plant response rating (0 to 100 scale): 125 g ai/ha, 0 = no effect, 100 = complete control
Description: as §1, §2

[23] = 31 g ai/ha, greenhouse 10 days, 0 no effect, 100 complete control
[24] = 125 g ai/ha, 10 days, 0 is no effect, 100 is complete control

In the case of `CCS(=O)(=O)NC(=O)C1C=CC(NC(=O)C2(C)CN(c3cc(F)cc(F)c3)C(=O)O2)C1` (stereo not shown) [Compound 81], the “Corn plant response rating (0 to 100 scale)” value (corn (Zea mays) [1]; [23]) is reported as 60, the “Corn plant response rating (0 to 100 scale)” value (corn (Zea mays) [1]; [24]) is reported as 100 and the “Soybean plant response rating (0 to 100 scale)” value (soybean (Glycine max) [2]; [23]) is reported as 30. The “Soybean plant response rating (0 to 100 scale)” value (soybean (Glycine max) [2]; [24]) was 50, the “Ryegrass, Italian plant response rating (0 to 100 scale)” value (from here on “Ryegrass … (0 to 100 scale)”) [3, 23] was 50 and the “Ryegrass … (0 to 100 scale)” value [3, 24] was 70. For the same molecule, the “Horseweed plant response rating (0 to 100 scale)” value (“Horseweed plant response rating” below) [4, 23] was 30, the “Horseweed plant response rating” value [4, 24] was 70 and the “Ragweed plant response rating (0 to 100 scale)” value [5, 23] was 20. The “Ragweed plant response rating (0 to 100 scale)” value [5, 24] was 50, the “Galium plant response rating (0 to 100 scale)” value (shortened to “Galium plant response rating”) [6, 23] was 80 and the “Galium plant response rating” value [6, 24] was 80. For the same molecule, the “Barnyardgrass plant response rating (0 to 100 scale)” value [7, 23] was 90, the “Barnyardgrass plant response rating (0 to 100 scale)” value [7, 24] was 90 and the “Blackgrass plant response rating (0 to 100 scale)” value [8, 23] was 0. The “Blackgrass plant response rating (0 to 100 scale)” value [8, 24] was 50, the “Amaranth, Palmer / Pigweed, Palmer plant response rating (0 to 100 scale)” value (from here on “Amaranth, Palmer / Pigweed”) [9, 23] was 70 and the “Amaranth, Palmer / Pigweed” value [9, 24] was 70. For the same molecule, the “Oat, Wild plant response rating (0 to 100 scale)” value (“Oat … (0 to 100 scale)” for short) [10, 23] was 80, the “Oat … (0 to 100 scale)” value [10, 24] was 90 and the “Wheat plant response rating (0 to 100 scale)” value [11, 23] was 90. The “Wheat plant response rating (0 to 100 scale)” value [11, 24] was 90, the “Kochia plant response rating (0 to 100 scale)” value (kochia (Bassia scoparia) [12]; [23]) was 80 and the “Kochia plant response rating (0 to 100 scale)” value (kochia (Bassia scoparia) [12]; [24]) was 90. The “Corn plant response rating” value (corn (Zea mays) [13]) was 0, the “Corn plant response rating (0 to 100 scale)” value (corn (Zea mays) [13]) was 80 and the “Soybean plant response rating” value (soybean (Glycine max) [14]) was 10. The “Soybean plant response rating (0 to 100 scale)” value (soybean (Glycine max) [14]) was 70, the “Ryegrass, Italian plant response rating” value [15] was 60 and the “Ryegrass … (0 to 100 scale)” value [15] was 80. The “Ragweed plant response rating” value [16] was 20, the “Ragweed plant response rating (0 to 100 scale)” value [16] was 10 and the “Barnyardgrass plant response rating” value [17] was 90. The “Barnyardgrass plant response rating (0 to 100 scale)” value [17] was 90, the “Blackgrass plant response rating” value [18] was 30 and the “Blackgrass plant response rating (0 to 100 scale)” value [18] was 70. The “Amaranth, Palmer (Pigweed, Palmer) plant response rating” value [19] was 50, the “Amaranth, Palmer plant response rating (0 to 100 scale)” value [19] was 90 and the “Oat, Wild plant response rating” value [20] was 40. For the same molecule, the “Oat … (0 to 100 scale)” value [20] was 70, the “Wheat plant response rating” value [21] was 40 and the “Wheat plant response rating (0 to 100 scale)” value [21] was 90. For the same molecule, the “Kochia plant response rating” value (kochia (Bassia scoparia) [22]) was 70 and the “Kochia plant response rating (0 to 100 scale)” value (kochia (Bassia scoparia) [22]) was 90.
In the case of `CC1(C(=O)NC2C=CC(C(=O)NS(=O)(=O)C3CC3)C2)CN(c2cc(Cl)cc(Cl)c2)C(=O)O1` (stereo not shown) [Compound 85], the “Corn plant response rating (0 to 100 scale)” value (corn (Zea mays) [1]; [23]) is reported as 20, the “Corn plant response rating (0 to 100 scale)” value (corn (Zea mays) [1]; [24]) is reported as 90 and the “Soybean plant response rating (0 to 100 scale)” value (soybean (Glycine max) [2]; [23]) is reported as 40. For the same molecule, the “Soybean plant response rating (0 to 100 scale)” value (soybean (Glycine max) [2]; [24]) was 60, the “Ryegrass … (0 to 100 scale)” value [3, 23] was 60 and the “Ryegrass … (0 to 100 scale)” value [3, 24] was 70. The “Horseweed plant response rating” value [4, 23] was 60, the “Horseweed plant response rating” value [4, 24] was 60 and the “Ragweed plant response rating (0 to 100 scale)” value [5, 23] was 30. The “Ragweed plant response rating (0 to 100 scale)” value [5, 24] was 60, the “Galium plant response rating” value [6, 23] was 50 and the “Galium plant response rating” value [6, 24] was 80. The “Barnyardgrass plant response rating (0 to 100 scale)” value [7, 23] was 90, the “Barnyardgrass plant response rating (0 to 100 scale)” value [7, 24] was 90 and the “Blackgrass plant response rating (0 to 100 scale)” value [8, 23] was 60. The “Blackgrass plant response rating (0 to 100 scale)” value [8, 24] was 80, the “Amaranth, Palmer / Pigweed” value [9, 23] was 40 and the “Amaranth, Palmer / Pigweed” value [9, 24] was 90. For the same molecule, the “Oat … (0 to 100 scale)” value [10, 23] was 80, the “Oat … (0 to 100 scale)” value [10, 24] was 90 and the “Wheat plant response rating (0 to 100 scale)” value [11, 23] was 80. The “Wheat plant response rating (0 to 100 scale)” value [11, 24] was 90, the “Kochia plant response rating (0 to 100 scale)” value (kochia (Bassia scoparia) [12]; [23]) was 50 and the “Kochia plant response rating (0 to 100 scale)” value (kochia (Bassia scoparia) [12]; [24]) was 70. The “Corn plant response rating” value (corn (Zea mays) [13]) was 0, the “Corn plant response rating (0 to 100 scale)” value (corn (Zea mays) [13]) was 30 and the “Soybean plant response rating” value (soybean (Glycine max) [14]) was 0. For the same molecule, the “Soybean plant response rating (0 to 100 scale)” value (soybean (Glycine max) [14]) was 10, the “Ryegrass, Italian plant response rating” value [15] was 60 and the “Ryegrass … (0 to 100 scale)” value [15] was 80. The “Ragweed plant response rating” value [16] was 30, the “Ragweed plant response rating (0 to 100 scale)” value [16] was 20 and the “Barnyardgrass plant response rating” value [17] was 20. For the same molecule, the “Barnyardgrass plant response rating (0 to 100 scale)” value [17] was 90, the “Blackgrass plant response rating” value [18] was 0 and the “Blackgrass plant response rating (0 to 100 scale)” value [18] was 20. For the same molecule, the “Amaranth, Palmer (Pigweed, Palmer) plant response rating” value [19] was 80, the “Amaranth, Palmer plant response rating (0 to 100 scale)” value [19] was 90 and the “Oat, Wild plant response rating” value [20] was 20. The “Oat … (0 to 100 scale)” value [20] was 50, the “Wheat plant response rating” value [21] was 0 and the “Wheat plant response rating (0 to 100 scale)” value [21] was 90. For the same molecule, the “Kochia plant response rating” value (kochia (Bassia scoparia) [22]) was 20 and the “Kochia plant response rating (0 to 100 scale)” value (kochia (Bassia scoparia) [22]) was 90.
